The results in this text go back to US10093630B2, “Pyrazole compounds and methods of making and using same” (ABIDE THERAPEUTICS, INC., priority 2014, dated 2018).

What all share (assay): In vitro competitive activity-based protein profiling (gel-based, FP-Rh or HT-01 probe)
What all share (type): biochemical

For one experiment, the target named is T1, MAGL (Mus musculus, UniProt O35678).
T1 construct: Proteomes (mouse brain membrane fraction or cell lysates); from tissue; host or cells: mouse brain membrane fraction (or cell lysates, not specified)
T1 sequence (O35678 1-303): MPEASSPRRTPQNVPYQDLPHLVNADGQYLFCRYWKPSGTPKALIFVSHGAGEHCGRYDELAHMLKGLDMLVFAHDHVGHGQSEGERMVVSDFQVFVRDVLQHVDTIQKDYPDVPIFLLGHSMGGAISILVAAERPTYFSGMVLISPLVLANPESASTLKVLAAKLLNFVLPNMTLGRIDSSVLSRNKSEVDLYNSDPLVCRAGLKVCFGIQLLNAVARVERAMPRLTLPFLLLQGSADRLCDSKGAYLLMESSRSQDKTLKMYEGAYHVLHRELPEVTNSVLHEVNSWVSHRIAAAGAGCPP
The conditions noted are these: for inhibition at 1 µM: 1 μM inhibitor; for inhibition at 10 µM: 10 μM inhibitor; for IC50: mouse brain membrane fraction or cell lysates, 30 min preincubation at 37° C., read-out: Mouse (IC50 value, nM) MAGL. As to the method:
(§1) In Vitro Competitive Activity-Based Protein Profiling.
(§2) Proteomes (mouse brain membrane fraction or cell lysates) (50 μL, 1.0 mg/mL total protein concentration) were preincubated with varying concentrations of inhibitors at 37° C. After 30 min, FP-Rh or HT-01 ([…], 50 μM in DMSO) was added and the mixture was incubated for another 30 min at 37° C. Reactions were quenched with SDS loading buffer (15 μL—4×) and run on SDS-PAGE. Following gel imaging, serine hydrolase activity was determined by measuring fluorescent intensity of gel bands corresponding to MAGL, ABHD6, FAAH, and PLA2G7 using ImageJ 1.43u software.

The next experiment deals with T2, ABHD6 (Mus musculus, UniProt Q8R2Y0).
T2 construct: Proteomes (mouse brain membrane fraction or cell lysates); from tissue; host or cells: mouse brain membrane fraction (or cell lysates, not specified)
T2 sequence (Q8R2Y0 1-336): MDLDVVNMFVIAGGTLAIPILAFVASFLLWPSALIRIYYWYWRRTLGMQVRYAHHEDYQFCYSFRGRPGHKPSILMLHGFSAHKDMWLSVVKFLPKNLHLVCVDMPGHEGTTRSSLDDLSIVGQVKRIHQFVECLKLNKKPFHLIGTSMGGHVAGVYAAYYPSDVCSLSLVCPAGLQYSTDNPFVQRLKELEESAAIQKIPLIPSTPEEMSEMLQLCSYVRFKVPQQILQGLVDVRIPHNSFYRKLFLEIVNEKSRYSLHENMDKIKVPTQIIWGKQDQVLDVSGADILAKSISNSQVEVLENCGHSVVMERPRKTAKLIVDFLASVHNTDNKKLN
The conditions noted are these: for inhibition at 1 µM: 1 μM inhibitor, read-out: % Inhibition at 1 μM, C = ABHD6; for inhibition at 10 µM: 10 μM inhibitor, read-out: % Inhibition at 10 μM, C = ABHD6; for IC50: mouse brain membrane fraction or cell lysates, 30 min preincubation at 37° C., read-out: Mouse (IC50 value, nM) ABHD6. How it is done: as §1, §2

The next experiment deals with T3, FAAH (Mus musculus, UniProt O08914).
T3 construct: Proteomes (mouse brain membrane fraction or cell lysates); from tissue; host or cells: mouse brain membrane fraction (or cell lysates, not specified)
T3 sequence (O08914 1-579): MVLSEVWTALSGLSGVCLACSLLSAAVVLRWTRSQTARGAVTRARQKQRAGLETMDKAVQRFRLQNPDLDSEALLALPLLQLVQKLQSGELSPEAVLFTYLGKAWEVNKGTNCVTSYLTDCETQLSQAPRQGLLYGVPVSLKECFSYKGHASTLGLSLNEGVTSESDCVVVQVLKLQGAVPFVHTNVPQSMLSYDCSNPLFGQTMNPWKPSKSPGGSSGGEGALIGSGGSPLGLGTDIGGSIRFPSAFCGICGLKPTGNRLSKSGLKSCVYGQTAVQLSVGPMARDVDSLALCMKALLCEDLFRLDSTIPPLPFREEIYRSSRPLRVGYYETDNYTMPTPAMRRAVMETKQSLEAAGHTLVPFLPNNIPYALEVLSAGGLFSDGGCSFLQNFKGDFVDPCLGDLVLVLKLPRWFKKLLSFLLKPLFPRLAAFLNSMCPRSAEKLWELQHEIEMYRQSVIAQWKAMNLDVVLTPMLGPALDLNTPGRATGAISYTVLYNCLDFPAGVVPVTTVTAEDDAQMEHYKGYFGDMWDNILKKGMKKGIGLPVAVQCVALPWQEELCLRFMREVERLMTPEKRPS
The following applies: for inhibition at 1 µM: 1 μM inhibitor, read-out: % Inhibition at 1 μM, B = FAAH; for inhibition at 10 µM: 10 μM inhibitor, read-out: % Inhibition at 10 μM, B = FAAH; for IC50: mouse brain membrane fraction or cell lysates, 30 min preincubation at 37° C., read-out: Mouse (IC50 value, nM) FAAH. As to the method:
as §1, §2

Each structure is given as a SMILES string.

One may read the inhibition as how much of the control response was suppressed. Take `O=C(N1CCN(C(c2ccc3c(c2)COC3)c2ccc3c(c2)COC3)CC1)n1cc(Cl)cn1` [Example 95, (4-(Bis(1,3-dihydroisobenzofuran-5-yl)methyl)piperazin-1-yl)(4-chloro-1H-pyrazol-1-yl)methanone]: the inhibition at 1 µM on MAGL was more than 75%; at ABHD6, more than 75%; at FAAH it was less than 25%.

As to `CC(C)n1cc(CN2CCN(C(=O)n3cc(Cl)cn3)CC2)c(-c2ccccc2)n1` [Example 101, (4-Chloro-1H-pyrazol-1-yl)(4-((1-isopropyl-3-phenyl-1H-pyrazol-4-yl)methyl)piperazin-1-yl)methanone], the inhibition at 1 µM on MAGL, at ABHD6 and on FAAH was more than 75% each time.

Regarding `O=C(N1CCN(Cc2c(N3CCCC3)cccc2C(F)(F)F)CC1)n1cc(-c2ccccc2)cn1` [Example 109, (4-Phenyl-1H-pyrazol-1-yl)(4-(2-(pyrrolidin-1-yl)-6-(trifluoromethyl)benzyl)piperazin-1-yl)methanone], the values for the inhibition at 10 µM at MAGL, on ABHD6 and on FAAH were 25 to 75%, more than 75% and more than 75%, respectively.

Broadly, the IC50 is the concentration at which inhibition is half-maximal. On to `Cc1cnn(C(=O)N2CCN(Cc3c(N4CCCC4)cccc3C(F)(F)F)CC2)c1` [Example 111, (4-Methyl-1H-pyrazol-1-yl)(4-(2-(pyrrolidin-1-yl)-6-(trifluoromethyl)benzyl)piperazin-1-yl)methanone], for which the inhibition at 10 µM at MAGL was more than 75%; at ABHD6 it was more than 75%; at FAAH it was 25 to 75%. The IC50 on MAGL is 100 to 1000 nM; on ABHD6 it was 100 to 1000 nM; on FAAH it was more than 1000 nM.

Consider `Cc1cnn(C(=O)N(C)CCN(C)S(C)(=O)=O)c1` [Example 196, N,4-Dimethyl-N-(2-(N-methylmethylsulfonamido)ethyl)-1H-pyrazole-1-carboxamide], for which the inhibition at 10 µM at MAGL, on ABHD6 and at FAAH was less than 25% each time.

Turning to `O=C(c1cnn(C(=O)N2CCN(C(c3ccc(Cl)cc3)c3ccc(Cl)cc3)CC2)c1)N1CCCC1` [Example 48, (4-(Bis(4-chlorophenyl)methyl)piperazin-1-yl)(4-(pyrrolidine-1-carbonyl)-1H-pyrazol-1-yl)methanone], the figures for the IC50 on MAGL, at ABHD6 and on FAAH were 100 to 1000 nM, 100 to 1000 nM and more than 1000 nM, respectively.

Regarding `O=C(N1CCCC1)n1cc(-c2ccc(-c3ccccc3Cl)cc2)cn1` [Example 108, (4-(2′-Chloro-[1,1′-biphenyl]-4-yl)-1H-pyrazol-1-yl)(pyrrolidin-1-yl)methanone], the inhibition at 10 µM at MAGL is less than 25%; at ABHD6, more than 75%; at FAAH, less than 25%.

On to `Cc1cnn(C(=O)NCc2ccc3ccccc3c2)c1` [Example 44, 4-Methyl-N-(naphthalen-2-ylmethyl)-1H-pyrazole-1-carboxamide], for which the inhibition at 10 µM on MAGL, at ABHD6 and on FAAH was less than 25% throughout.

For the compound `O=C(N1CCN(Cc2ccc(Cl)cc2N2CCOCC2)CC1)n1cc(Cl)cn1` [Example 47, (4-Chloro-1H-pyrazol-1-yl)(4-(4-chloro-2-morpholinobenzyl)piperazin-1-yl)methanone], the results for the IC50 at MAGL, on ABHD6 and at FAAH were less than 100 nM, less than 100 nM and 100 to 1000 nM, respectively.

For the compound `Cc1cnn(C(=O)N2CCN(C(c3ccc(Cl)cc3)c3ccc(Cl)cc3)CC2)c1` [Example 117, (4-(Bis(4-chlorophenyl)methyl)piperazin-1-yl)(4-methyl-1H-pyrazol-1-yl)methanone], on MAGL, the inhibition at 1 µM was more than 75%, the inhibition at 10 µM is more than 75% and the concentration for half-maximal inhibition (IC50) was less than 100 nM. Further, on ABHD6, the inhibition at 1 µM was less than 25%, the inhibition at 10 µM was more than 75% and the IC50 was more than 1000 nM. For the same compound, at FAAH, the inhibition at 1 µM is less than 25%, the inhibition at 10 µM was less than 25% and the 50% inhibitory concentration (IC50) is more than 1000 nM.

`CC(=O)N1CCCN(C(=O)n2cc(Cl)cn2)CC1` [Example 188, 1-(4-(4-Chloro-1H-pyrazole-1-carbonyl)-1,4-diazepan-1-yl)ethanone]: the results for the inhibition at 10 µM on MAGL, on ABHD6 and at FAAH were less than 25%, 25 to 75% and less than 25%, respectively.

On to `O=C(N1CCOCC1)n1cc(Cl)cn1` [Example 97, (4-Chloro-1H-pyrazol-1-yl)(morpholino)methanone], for which the values for the inhibition at 10 µM on MAGL, on ABHD6 and at FAAH were less than 25%, less than 25% and more than 75%, respectively.

In the case of `O=C(N1CCN(Cc2c(N3CCCC3)cccc2C(F)(F)F)CC1)n1cc(F)cn1` [Example 113, (4-Fluoro-1H-pyrazol-1-yl)(4-(2-(pyrrolidin-1-yl)-6-(trifluoromethyl)benzyl)piperazin-1-yl)methanone], at MAGL, the inhibition at 1 µM was more than 75%, the inhibition at 10 µM is more than 75% and the IC50 was less than 100 nM. For the same compound, at ABHD6, the inhibition at 1 µM is more than 75%, the inhibition at 10 µM was more than 75% and the IC50 was in the range of 100 to 1000 nM. For the same compound, on FAAH, the inhibition at 1 µM fell in the range of 25 to 75%, the inhibition at 10 µM is more than 75% and the IC50 was more than 1000 nM.

Regarding `O=C(NC1CC1)c1cnn(C(=O)N2CCN(C(c3ccc(Cl)cc3)c3ccc(Cl)cc3)CC2)c1` [Example 49, 1-(4-(Bis(4-chlorophenyl)methyl)piperazine-1-carbonyl)-N-cyclopropyl-1H-pyrazole-4-carboxamide], the IC50 at MAGL was 100 to 1000 nM; on ABHD6 it was 100 to 1000 nM; at FAAH, more than 1000 nM.

Regarding `CC(C)c1cnn(C(=O)N2CCN(C(c3ccc(Cl)cc3)c3ccc(Cl)cc3)CC2)c1` [Example 120, (4-(Bis(4-chlorophenyl)methyl)piperazin-1-yl)(4-isopropyl-1H-pyrazol-1-yl)methanone], the inhibition at 1 µM on MAGL is 25 to 75%; on ABHD6, 25 to 75%; at FAAH, less than 25%. Moreover, the inhibition at 10 µM at MAGL was more than 75%; on ABHD6 it was more than 75%; on FAAH, less than 25%.

On to `Cc1ccccc1-c1cnn(C(=O)N2CCN(Cc3c(N4CCCC4)cccc3C(F)(F)F)CC2)c1` [Example 114, (4-(2-(Pyrrolidin-1-yl)-6-(trifluoromethyl)benzyl)piperazin-1-yl)(4-(o-tolyl)-1H-pyrazol-1-yl)methanone], for which the inhibition at 1 µM at MAGL is less than 25%; on ABHD6, more than 75%; on FAAH it was less than 25%. The inhibition at 10 µM on MAGL was less than 25%; at ABHD6, more than 75%; at FAAH, 25 to 75%. Further, the IC50 at ABHD6 was 100 to 1000 nM.

On to `O=C(N1CCN(C(c2ccc(Cl)cc2)c2ccc(Cl)cc2)CC1)n1cc(F)cn1` [Example 121, (4-(Bis(4-chlorophenyl)methyl)piperazin-1-yl)(4-fluoro-1H-pyrazol-1-yl)methanone], for which, on MAGL, the inhibition at 1 µM is more than 75%, the inhibition at 10 µM is more than 75% and the IC50 is less than 100 nM. For the same compound, at ABHD6, the inhibition at 1 µM was less than 25%, the inhibition at 10 µM is more than 75% and the IC50 is more than 1000 nM. Also, on FAAH, the inhibition at 1 µM is less than 25%, the inhibition at 10 µM is more than 75% and the IC50 is more than 1000 nM.
